# Results published in patent publication US10548911B2, “Small molecule anti-scarring agents” (UNIVERSITY OF ROCHESTER, priority 2014, dated 2020).
# “Also recorded” adds a separate entry of the source.
# Columns and labels:
# [1] = system: collagen production of TGFβ induced myofibroblasts; assay: Collagen production assay (collagen I slot blot of culture supernatant); assay type: cell-based, human; settings: 72 hours
# Procedure: Cell culture supernatant was collected and transferred (5-20 ul) to PVDF membrane using a slot blot device. The membrane was blocked and probed with a goat anti-collagen antibody (1:5000), washed and incubated with a donkey anti-goat antibody conjugated to HRP. Band intensities were quantified using ImageLab software and values were normalized to vehicle treatments.
# TED fibroblasts were treated with TGFβ (1 ng/ml) in the presence or absence of 10-250 nM salinomycin for 72 hours to allow formation of myofibroblasts. After 72 hours, cells were harvested and analyzed by Western blot. As expected, the fibroblasts robustly responded to TGFβ, expressing high levels of αSMA and calponin (FIG. 2A). […] At 50 nM salinomycin, expression of αSMA was reduced by 4-fold over TGFβ treatment alone. Furthermore, at 250 nM salinomycin, αSMA expression was reduced by approximately 16-fold, to levels at or below untreated fibroblasts. […] Another key role of myofibroblasts in scar formation is the production of collagen. Whether salinomycin could block myofibroblast collagen production was assessed. Cells were treated with TGFβ and salinomycin as above and after 72 hours, culture medium was collected and analyzed for collagen levels using a specific collagen I antibody and slot blot analysis.
# phospho-p38 = assay: Western blot of phospho-p38 in TGFβ-treated human orbital fibroblasts; assay type: cell-based; settings: for reduction of phospho-p38 levels: 250 nM
# Procedure: Therefore, activity of another signaling molecule that is involved in myofibroblast formation, namely the mitogen-activated protein kinase (MAPK), p38, was measured to assess its potential role in the observed results. P38 MAPKs are a class of protein kinases that respond to TGFβ, ultraviolet radiation and other stimuli. Phosphorylation and activation of p38 can lead to numerous downstream signaling pathways, including phosphorylation of Smad proteins.
# To further test if salinomycin targets the p38 pathway to block myofibroblast formation, a plasmid encoding a mutant MKK6 (pcDNA3-flag MKK6(glu)) protein was used. MKK6 phosphorylates and thus activates p38 in response to extracellular signals such as TGFβ or other environmental stresses. The MKK6(glu) protein, which harbors glutamate mutations at amino acid residues serine 207 and threonine 211, is constitutively active and thus phosphorylates p38 irrespective of signal (Raingeaud et al., “MKK3- and MKK6-regulated gene expression is mediated by the p38 mitogen-activated protein kinase signal transduction pathway,” Mol. Cell. Biol. 16:1247-1255 (1996), which is hereby incorporated by reference in its entirety). Thus, if salinomycin is blocking the p38 signaling pathway, MKK6(glu) should overcome the effect of salinomycin. MKK6(glu) was first tested using the SBE4-TK-luc reporter plasmid. The luciferase reporter plasmid was introduced into human fibroblasts along with the MKK6(glu) plasmid or a control plasmid (pcDNA3-GFP). Cells were then treated with vehicle, TGFβ or TGFβ plus 250 nM salinomycin. After 24 hours, luciferase activity was measured (FIG. 6A). […] MKK6(glu) was further tested to assess whether it could attenuate the ability of salinomycin to inhibit p38 phosphorylation. Control or MKK6(glu) plasmids were introduced into human fibroblasts by electroporation and then cells were treated with TGFβ for 24 hours. Following treatment, cells were analyzed for flag-MKK6(glu) expression and phospho-p38 by Western blot (FIG. 6B). […] However, MKK6(glu) expression leads to a large induction of phospho-p38, regardless of salinomycin treatment. As a third test, control or MKK6(glu) plasmids were introduced into human fibroblasts by electroporation. After electroporation, cells were induced to form myofibroblasts by TGFβ treatment for 72 hours. Samples were analyzed for expression of flag-MKK6(glu), αSMA, calponin and β-tubulin by Western blot (FIG. 6C).
# [2] = system: TGFβ induced Smad-luc activity; assay: Smad-luc reporter in human orbital fibroblasts electroporated with control or MKK6(glu) plasmid; assay type: cell-based; settings: 250 nM, 24 hours
# Procedure: Plasmid DNA was introduced into human fibroblasts by electroporation. Plasmids were electroporated with an Amaxa nucleofector (program U-025) into 1×10^6 cells. The pcDNA3-flag MKK6(glu) plasmid was obtained from Addgene (plasmid 13518, from Roger Davis' lab). After transfection cells were cultured for 12-24 hours and culture medium was subsequently changed to treatment conditions.
# To further test if salinomycin targets the p38 pathway to block myofibroblast formation, a plasmid encoding a mutant MKK6 (pcDNA3-flag MKK6(glu)) protein was used. MKK6 phosphorylates and thus activates p38 in response to extracellular signals such as TGFβ or other environmental stresses. The MKK6(glu) protein, which harbors glutamate mutations at amino acid residues serine 207 and threonine 211, is constitutively active and thus phosphorylates p38 irrespective of signal (Raingeaud et al., “MKK3- and MKK6-regulated gene expression is mediated by the p38 mitogen-activated protein kinase signal transduction pathway,” Mol. Cell. Biol. 16:1247-1255 (1996), which is hereby incorporated by reference in its entirety). Thus, if salinomycin is blocking the p38 signaling pathway, MKK6(glu) should overcome the effect of salinomycin. MKK6(glu) was first tested using the SBE4-TK-luc reporter plasmid. The luciferase reporter plasmid was introduced into human fibroblasts along with the MKK6(glu) plasmid or a control plasmid (pcDNA3-GFP). Cells were then treated with vehicle, TGFβ or TGFβ plus 250 nM salinomycin. After 24 hours, luciferase activity was measured (FIG. 6A). […] MKK6(glu) was further tested to assess whether it could attenuate the ability of salinomycin to inhibit p38 phosphorylation. Control or MKK6(glu) plasmids were introduced into human fibroblasts by electroporation and then cells were treated with TGFβ for 24 hours. Following treatment, cells were analyzed for flag-MKK6(glu) expression and phospho-p38 by Western blot (FIG. 6B). […] Samples were analyzed for expression of flag-MKK6(glu), αSMA, calponin and β-tubulin by Western blot (FIG. 6C).
compound,measurement,setting,value
CC[C@@H](C(=O)[C@@H](C)[C@@H](O)[C@H](C)[C@@H]1O[C@@H]([C@@H](CC)C(=O)O)CC[C@@H]1C)[C@H]1O[C@]2(C=C[C@@H](O)[C@]3(CC[C@@](C)([C@H]4CC[C@](O)(CC)[C@H](C)O4)O3)O2)[C@H](C)C[C@@H]1C [salinomycin],collagen production,[1]; 10 nM,decreases
same,collagen production,[1]; 100 nM,at baseline levels
same,collagen production,[1]; 250 nM,below baseline levels
same,"collagen I levels, dose dependence",[1]; 10-250 nM,dose-dependent manner
same,reduction of phospho-p38 levels,phospho-p38; 5 hours,more than 2 fold
same,reduction of phospho-p38 levels,phospho-p38; 24 hours,10 fold
same,phospho-p38 levels,phospho-p38; 5 hours TGFβ treatment,completely blocked
same,inhibition of phospho-p38,phospho-p38; 24 hours TGFβ treatment,80%
same,phosphorylation of p38,"phospho-p38; control plasmid, TGFβ 24 hours",blocks phosphorylation of p38
same,TGFβ-induced Smad-luc (luciferase) activity,[2]; constitutively active MKK6(glu) plasmid,attenuated the effect of salinomycin; also recorded: unable to block TGFβ-induced luciferase activity
same,TGFβ-induced Smad-luc (luciferase) activity,[2]; control (GFP) plasmid,completely blocked TGFβ-induced luciferase activity
same,TGFβ-induced Smad-luc (luciferase) activity,"[2]; control (GFP) plasmid, listed as Salinomycin",blocked TGFβ induced Smad-luc activity
